US20130251743A1, “Fungal extracts and uses thereof” (CERMEDI OY, priority 2010, published 2013)

Tested on: human retinal pigment epithelial cells (hRPE)
Experiment: WST-1 cytotoxicity test of hRPE cells exposed to hydrogen peroxide-induced oxidative stress
Assay type: cell-based
Conditions: ARPE-19 cells exposed to H2O2
Method: Human ARPE-19 retinal pigment epithelial cells (RPE) were obtained from American Type Culture Collection (USA). The cells were grown to confluency in a standard incubator in appropriate Dulbecco's MEM/Nut MIX F-12 medium (Gibco, UK). Oxidative stress was applied to the cells (1×10^4 cells/well) by using various concentrations of H2O2. Cytotoxicity was evaluated by two cytotoxicity tests, WST-1 test. WST-1 test reagent was purchased from Roche, Basel, Switzerland. WST-1 test is based on the cleavage of the tetrazolium salt WST-1 (4-*3-(4-iodophenyl)-2-(4-nitrophenyl)-2H-5-tetrazolio*-1,3-benzene disulfonate, slightly red) to formazan (dark red) by various mitochondrial dehydrogenase enzymes. The mean optical density values corresponding to the non-treated controls were taken as 100%. The results were expressed as percentages of the optical density of treated vs. untreated controls. Dose-response curves were drawn from the results expressed as mean±standard error of mean (SEM) by Graph Pad Prism software (GraphPad™, San Diego, US) using non-linear regression analysis. […] The statistical significance of the differences between the cultures exposed to H2O2 and tested extracts without or with serum was determined with the Student's two-tailed t-test (GraphPad Prism). […]

## COc1cc(C[C@@H](CO)[C@H](CO)Cc2ccc(O)c(OC)c2)ccc1O [secoisolariciresinol (SECO), secoisolariciresinol]
  protection of hRPE cells against oxidative damage (WST-1 test): did not protect hRPE cells from oxidative damage
